Data reported in patent US8546401B2, “5,6-disubstituted oxindole-derivatives and use thereof for treating vasopressin-dependent diseases” (AbbVie Deutschland GmbH & Co. KG, priority 2007, dated 2013).

What was measured:
[1] = biological target: T1, human vasopressin V1b receptor (Homo sapiens, UniProt P47901); assay: Vasopressin V1b receptor binding assay; details: CHO-K1 membranes, 3H-AVP displacement
T1 construct: expressed in transfected cells; host or cells: CHO-K1 (cell line hV1b_3H2_CHO), membrane preparation
T1 sequence (P47901 1-424): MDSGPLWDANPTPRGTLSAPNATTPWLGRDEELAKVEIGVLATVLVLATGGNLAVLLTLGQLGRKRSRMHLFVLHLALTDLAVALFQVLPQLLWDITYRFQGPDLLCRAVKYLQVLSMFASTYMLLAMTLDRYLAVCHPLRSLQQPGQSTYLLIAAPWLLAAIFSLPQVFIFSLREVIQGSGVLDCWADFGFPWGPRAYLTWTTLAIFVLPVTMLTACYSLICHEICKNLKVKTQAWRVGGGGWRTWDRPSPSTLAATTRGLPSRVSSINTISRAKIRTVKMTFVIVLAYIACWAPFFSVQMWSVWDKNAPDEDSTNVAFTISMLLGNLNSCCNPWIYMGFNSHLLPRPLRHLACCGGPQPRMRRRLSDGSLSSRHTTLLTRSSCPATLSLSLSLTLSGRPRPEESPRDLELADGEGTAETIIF
Description: 1. Vasopressin V1b Receptor Binding Assay:
The test substances were dissolved in a concentration of 10^−2 M in DMSO and further diluted to 5×10^−4 M to 5×10^−3 M. These serial DMSO predilutions were diluted 1:10 with assay buffer. The substance concentration was further diluted 1:5 in the assay mixture (2% DMSO in the mixture).
CHO-K1 cells with stably expressed human vasopressin V1b receptor (clone 3H2) were harvested and homogenized in 50 mM Tris-HCl and in the presence of protease inhibitors (Roche complete Mini #1836170) using a Polytron homogenizer at intermediate setting for 2×10 seconds, and subsequently centrifuged at 40 000×g for 1 h. The membrane pellet was again homogenized and centrifuged as described and subsequently taken up in 50 mM Tris-HCl, pH 7.4, homogenized and stored in aliquots frozen in liquid nitrogen at −190° C.
(§1) The binding assay was carried out by the method based on that of Tahara et al. (Tahara A et al., Brit. J. Pharmacol. 125, 1463-1470 (1998)).
(§2) The incubation buffer was: 50 mM Tris, 10 mM MgCl2, 0.1% BSA, pH 7.4.
In the assay mixture (250 μl), membranes (50 μg/ml protein in incubation buffer) from CHO-K1 cells with stably expressed human V1b receptors (cell line hV1b—3H2_CHO) were incubated with 1.5 nM ^3H-AVP (8-Arg-vasopressin, PerkinElmer #18479) in incubation buffer (50 mM Tris, 10 mM MgCl2, 0.1% BSA, pH 7.4) (total binding) or additionally with increasing concentrations of test substance (displacement experiment). The nonspecific binding was determined with […] (Bachem #H1780). All determinations were carried out as triplicate determinations. After incubation (60 minutes at room temperature), the free radioligand was filtered off by vacuum filtration (Skatron cell harvester 7000) through Wathman GF/B glass fiber filter mats, and the filters were transferred into scintillation vials. The liquid scintillation measurement took place in a model 2000 or 2200CA Tricarb instrument (Packard). Conversion of the measured cpm into dpm was carried out with the aid of a standard quench series.
The binding parameters were calculated by nonlinear regression in SAS. The algorithms of the program operate in analogy to the LIGAND analysis program (Munson P J and Rodbard D, Analytical Biochem. 107, 220-239 (1980)). The Kd of ^3H-AVP for the recombinant human V1b receptors is 0.4 nM and was used to determine the Ki.

[2] = biological target: T2, human vasopressin V1a receptor (Homo sapiens, UniProt P37288); assay: Vasopressin V1a receptor binding assay; details: selectivity quotient, human receptors
T2 construct: expressed in transfected cells; host or cells: CHO-K1 (cell line hV1a_5_CHO), membrane preparation
Description: 2. Vasopressin V1a Receptor Binding Assay:
The test substances were dissolved in a concentration of 10^−2 M in DMSO. Further dilution of these DMSO solutions took place in incubation buffer (50 mM Tris, 10 mM MgCl2, 0.1% BSA, pH 7.4).
CHO-K1 cells with stably expressed human vasopressin V1a receptor (clone 5) were harvested and homogenized in 50 mM Tris-HCl and in the presence of protease inhibitors (Roche complete Mini #1836170) using a Polytron homogenizer at intermediate setting for 2×10 seconds, and subsequently centrifuged at 40 000×g for 1 h. The membrane pellet was again homogenized and centrifuged as described and subsequently taken up in 50 mM Tris-HCl, pH 7.4, homogenized and stored in aliquots frozen in liquid nitrogen at −190° C.
as §1, §2
In the assay mixture (250 μl), membranes (20 μg/ml protein in incubation buffer) from CHO-K1 cells with stably expressed human V1a receptors (cell line hV1a—5_CHO) were incubated with 0.04 nM ^125I-AVP (8-Arg-vasopressin, NEX 128) in incubation buffer (50 mM Tris, 10 mM MgCl2, 0.1% BSA, pH 7.4) (total binding) or additionally with increasing concentrations of test substance (displacement experiment). The nonspecific binding was determined with 1 μM AVP (Bachem #H1780). Triplicate determinations were carried out.
After incubation (60 minutes at room temperature), the free radioligand was filtered off by vacuum filtration (Skatron cell harvester 7000) through Wathman GF/B glass fiber filter mats, and the filters were transferred into scintillation vials.
The liquid scintillation measurement took place in a model 2000 or 2200CA Tricarb instrument (Packard). Conversion of the measured cpm into dpm was carried out with the aid of a standard quench series.
The binding parameters were calculated by nonlinear regression in SAS. The algorithms of the program operate in analogy to the LIGAND analysis program (Munson P J and Rodbard D, Analytical Biochem. 107, 220-239 (1980)). The Kd of ^125I-AVP for the recombinant hV1a receptors was determined in saturation experiments. A Kd of 1.33 nM was used to determine the Ki.

human oxytocin receptors = biological target: T3, human oxytocin receptors (Homo sapiens, UniProt P30559); assay: Oxytocin receptor binding assay; details: selectivity quotient
T3 construct: expressed in transfected cells; host or cells: HEK-293, transient expression; lysed and homogenized cells
T3 sequence (P30559 1-389): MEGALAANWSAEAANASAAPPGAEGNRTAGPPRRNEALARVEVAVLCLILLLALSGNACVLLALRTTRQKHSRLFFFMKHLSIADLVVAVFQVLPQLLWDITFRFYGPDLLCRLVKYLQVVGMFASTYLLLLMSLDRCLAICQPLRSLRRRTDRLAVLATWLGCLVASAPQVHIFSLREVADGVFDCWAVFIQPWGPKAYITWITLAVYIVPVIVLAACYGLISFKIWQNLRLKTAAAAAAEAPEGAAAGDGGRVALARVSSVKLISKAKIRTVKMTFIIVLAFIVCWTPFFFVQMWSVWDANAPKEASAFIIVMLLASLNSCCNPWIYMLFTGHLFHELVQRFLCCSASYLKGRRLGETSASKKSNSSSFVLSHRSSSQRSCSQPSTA
Description: 4. Oxytocin Receptor Binding Assay
The substances were dissolved in a concentration of 10^−2 M in DMSO and diluted with incubation buffer (50 mM Tris, 10 mM MgCl2, 0.1% BSA, pH 7.4).
Confluent HEK-293 cells with transiently expressing recombinant human oxytocin receptors were centrifuged at 750×g at room temperature for 5 minutes. The residue was taken up in ice-cold lysis buffer (50 mM Tris-HCl, 10% glycerol, pH 7.4 and Roche complete protease inhibitor) and subjected to an osmotic shock at 4° C. for 20 minutes. The lyzed cells were then centrifuged at 750×g at 4° C. for 20 minutes, the residue was taken up in incubation buffer, and aliquots of 10^7 cells/ml were prepared. The aliquots were frozen at −80° C. until used.
On the day of the experiment, the cells were thawed, diluted with incubation buffer and homogenized using a Multipette Combitip (Eppendorf, Hamburg). The reaction mixture of 0.250 ml was composed of 2 to 5×10^4 recombinant cells, 3-4 nM ^3H-oxytocin (PerkinElmer, NET 858) in the presence of test substance (inhibition plot) or only incubation buffer (total binding). The nonspecific binding was determined with 10^−6 M oxytocin (Bachem AG, H2510). Triplicate determinations were set up. Bound and free radioligand were separated by filtration under vacuum with Whatman GF/B glass fiber filters with the aid of a Skatron cell harvester 7000. The bound radioactivity was determined by liquid scintillation measurement in a Tricarb Beta counter, model 2000 or 2200CA (Packard).
The binding parameters were calculated by nonlinear regression analysis (SAS) in analogy to the LIGAND program of Munson and Rodbard (Analytical Biochem 1980; 107: 220-239). The Kd of ^3H-oxytocin for the recombinant hOT receptors is 7.6 nM and was used to determine the Ki.

T2 sequence (P37288 whole entry): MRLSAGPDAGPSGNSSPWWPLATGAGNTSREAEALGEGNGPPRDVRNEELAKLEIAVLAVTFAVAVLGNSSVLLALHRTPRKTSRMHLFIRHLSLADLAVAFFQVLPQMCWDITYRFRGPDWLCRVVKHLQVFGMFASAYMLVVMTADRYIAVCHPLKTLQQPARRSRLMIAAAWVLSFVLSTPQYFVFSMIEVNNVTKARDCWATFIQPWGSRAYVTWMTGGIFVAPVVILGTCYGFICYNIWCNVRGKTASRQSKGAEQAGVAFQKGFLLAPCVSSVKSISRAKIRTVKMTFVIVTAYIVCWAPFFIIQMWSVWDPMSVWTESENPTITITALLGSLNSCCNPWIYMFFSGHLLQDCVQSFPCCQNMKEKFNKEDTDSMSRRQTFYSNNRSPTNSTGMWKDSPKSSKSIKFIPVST

CCOc1ncccc1C1(NC(=O)N2CCC(N3CCN(CC)CC3)CC2)C(=O)N(S(=O)(=O)c2ccc(OC)cc2)c2cc(F)c(C#N)cc21 (stereo not drawn) [Example 8, 4-(4-Ethylpiperazin-1-yl)piperidine-1-[5-cyano-3-(2-ethoxypyridin-3-yl)-6-fluoro-1-(4-methoxyphenylsulfonyl)-2-oxo-2,3-dihydro-1H-indol-3-yl]carboxamide]
Ki [1]: 1 to 10 nM
Ki(h − V1a)/Ki(h − V1b)* [2]: ++ (25-75)
Ki(h − OT)/Ki(h − V1b)* (human oxytocin receptors): +++ (>75)

CCOc1ccccc1C1(NC(=O)N2CCN(C3CCN(C)CC3)CC2)C(=O)N(S(=O)(=O)c2ccc(OC)cc2)c2cc(F)c(C#N)cc21 (stereo not drawn) [Example 10, 4-(1-Methylpiperidin-4-yl)piperazine-1-[5-cyano-3-(2-ethoxyphenyl)-6-fluoro-1-(4-methoxyphenylsulfonyl)-2-oxo-2,3-dihydro-1H-indol-3-yl]carboxamide]
Ki [1]: 1 to 10 nM
Ki(h − V1a)/Ki(h − V1b)* [2]: ++ (25-75)
Ki(h − OT)/Ki(h − V1b)* (human oxytocin receptors): + (10-<25)

CCOc1ccccc1C1(NC(=O)N2CCN(C3CCN(CC)CC3)CC2)C(=O)N(S(=O)(=O)c2ccc(OC)cc2OC)c2cc(F)c(C#N)cc21 (stereo not drawn) [Example 11, 4-(1-Ethylpiperidin-4-yl)piperazine-1-[5-cyano-1-(2,4-dimethoxyphenylsulfonyl)-3-(2-ethoxyphenyl)-6-fluoro-2-oxo-2,3-dihydro-1H-indol-3-yl]carboxamide]
Ki [1]: < 1 nM
Ki(h − V1a)/Ki(h − V1b)* [2]: +++ (>75)
Ki(h − OT)/Ki(h − V1b)* (human oxytocin receptors): +++ (>75)

CCOc1ccccc1C1(NC(=O)N2CCN(C3CCN(CC)CC3)CC2)C(=O)N(S(=O)(=O)c2ccc(OC)cc2)c2cc(F)c(C#N)cc21 (stereo not drawn) [Example 12, 4-(1-Ethylpiperidin-4-yl)piperazine-1-[5-cyano-3-(2-ethoxyphenyl)-6-fluoro-1-(4-methoxyphenylsulfonyl)-2-oxo-2,3-dihydro-1H-indol-3-yl]carboxamide]
Ki [1]: 1 to 10 nM
Ki(h − V1a)/Ki(h − V1b)* [2]: +++ (>75)
Ki(h − OT)/Ki(h − V1b)* (human oxytocin receptors): +++ (>75)

CCOc1ccccc1C1(NC(=O)N2CCN(C3CCN(CC)CC3)CC2)C(=O)N(S(=O)(=O)c2ccccc2)c2cc(F)c(C#N)cc21 (stereo not drawn) [Example 13, 4-(1-Ethylpiperidin-4-yl)piperazine-1-[1-phenylsulfonyl-5-cyano-3-(2-ethoxyphenyl)-6-fluoro-2-oxo-2,3-dihydro-1H-indol-3-yl]carboxamide]
Ki [1]: 1 to 10 nM
Ki(h − V1a)/Ki(h − V1b)* [2]: ++ (25-75)
Ki(h − OT)/Ki(h − V1b)* (human oxytocin receptors): +++ (>75)

CCOc1ccccc1C1(NC(=O)N2CCC(N3CCN(C)CC3)CC2)C(=O)N(S(=O)(=O)c2ccc(OC)cc2OC)c2cc(F)c(C#N)cc21 (stereo not drawn) [Example 14, 4-(4-Methylpiperazin-1-yl)piperidine-1-[5-cyano-1-(2,4-dimethoxyphenylsulfonyl)-3-(2-ethoxyphenyl)-6-fluoro-2-oxo-2,3-dihydro-1H-indol-3-yl]carboxamide]
Ki [1]: 1 to 10 nM
Ki(h − V1a)/Ki(h − V1b)* [2]: + (10-<25)
Ki(h − OT)/Ki(h − V1b)* (human oxytocin receptors): +++ (>75)

CCOc1ccccc1C1(NC(=O)N2CCC(N3CCN(C)CC3)CC2)C(=O)N(S(=O)(=O)c2ccc(OC)cc2)c2cc(F)c(C#N)cc21 (stereo not drawn) [Example 15, 4-(4-Methylpiperazin-1-yl)piperidine-1-[5-cyano-3-(2-ethoxyphenyl)-6-fluoro-1-(4-methoxyphenylsulfonyl)-2-oxo-2,3-dihydro-1H-indol-3-yl]carboxamide]
Ki [1]: 1 to 10 nM
Ki(h − V1a)/Ki(h − V1b)* [2]: + (10-<25)
Ki(h − OT)/Ki(h − V1b)* (human oxytocin receptors): +++ (>75)

CCOc1ccccc1C1(NC(=O)N2CCC(N3CCN(CC)CC3)CC2)C(=O)N(S(=O)(=O)c2ccc(OC)cc2OC)c2cc(F)c(C#N)cc21 (stereo not drawn) [Example 16, 4-(4-Ethylpiperazin-1-yl)piperidine-1-[5-cyano-1-(2,4-dimethoxyphenylsulfonyl)-3-(2-ethoxyphenyl)-6-fluoro-2-oxo-2,3-dihydro-1H-indol-3-yl]carboxamide]
Ki [1]: < 1 nM
Ki(h − V1a)/Ki(h − V1b)* [2]: + (10-<25)
Ki(h − OT)/Ki(h − V1b)* (human oxytocin receptors): +++ (>75)
